The results in this text go back to ChEMBL document CHEMBL1148026, “Oxadiazole mannich bases: synthesis and antimycobacterial activity” (Bioorg Med Chem Lett, 2007).

Converted amounts (≈) assume the structure as drawn.

The subject of this experiment is Mycobacterium tuberculosis. In words: Antimycobacterial activity against isoniazid-resistant Mycobacterium tuberculosis by agar dilution method using double dilution technique. The format is functional. (In agar dilution, organisms are placed on agar that contains the substance at set levels.)
For orientation: MIC means the lowest concentration found to suppress growth. Low readings indicate a more susceptible organism, high ones a less susceptible organism. Regarding `O=S(=O)(c1ccc(NC(Cc2ccco2)n2nc(-c3ccc(Nc4ccccc4)cc3)oc2=S)cc1)c1ccc(NC(Cc2ccco2)n2nc(-c3ccc(Nc4ccccc4)cc3)oc2=S)cc1` (stereo not given), the MIC stood at 1.86 µM (≈ 1.81 µg/mL).

On to `O=S(=O)(c1ccc(NC(Cc2ccco2)n2nc(COc3cccc4ccccc34)oc2=S)cc1)c1ccc(NC(Cc2ccco2)n2nc(COc3cccc4ccccc34)oc2=S)cc1` (stereo not given), for which the MIC stood at 2.12 µM (≈ 2.01 µg/mL).

Regarding `O=S(=O)(c1ccc(NC(c2ccccc2)n2nc(Cc3ccccc3)oc2=S)cc1)c1ccc(NC(c2ccccc2)n2nc(Cc3ccccc3)oc2=S)cc1` (stereo not given), 5.98 µM (≈ 4.84 µg/mL) was the least that counted as inhibitory (MIC).

Turning to `O=S(=O)(c1ccc(NC(Cc2ccco2)n2nc(-c3ccccc3)oc2=S)cc1)c1ccc(NC(Cc2ccco2)n2nc(-c3ccccc3)oc2=S)cc1` (stereo not given), the MIC is 2.24 µM (≈ 1.77 µg/mL).

On to `O=S(=O)(c1ccc(NC(Cc2ccco2)n2nc(COc3ccc4ccccc4c3)oc2=S)cc1)c1ccc(NC(Cc2ccco2)n2nc(COc3ccc4ccccc4c3)oc2=S)cc1` (stereo not given), for which inhibition of growth (MIC) required 1.1 µM (≈ 1.04 µg/mL).

Regarding `O=[N+]([O-])c1ccc(-c2nn(C(Nc3ccc(S(=O)(=O)c4ccc(NC(c5ccccc5)n5nc(-c6ccc([N+](=O)[O-])cc6)oc5=S)cc4)cc3)c3ccccc3)c(=S)o2)cc1` (stereo not given), the MIC came out at 3.94 µM (≈ 3.43 µg/mL).

The compound `O=S(=O)(c1ccc(NC(Cc2ccco2)n2nc(Cc3ccccc3)oc2=S)cc1)c1ccc(NC(Cc2ccco2)n2nc(Cc3ccccc3)oc2=S)cc1` (stereo not given) displayed an MIC of 3.24 µM (≈ 2.65 µg/mL).

In the case of `O=S(=O)(c1ccc(NC(c2ccccc2)n2nc(COc3cccc4ccccc34)oc2=S)cc1)c1ccc(NC(c2ccccc2)n2nc(COc3cccc4ccccc34)oc2=S)cc1` (stereo not given), 5.96 µM (≈ 5.61 µg/mL) was the least that counted as inhibitory (MIC).

`O=S(=O)(c1ccc(NC(c2ccccc2)n2nc(COc3ccc4ccccc4c3)oc2=S)cc1)c1ccc(NC(c2ccccc2)n2nc(COc3ccc4ccccc4c3)oc2=S)cc1` (stereo not given) came in with an MIC of 2.42 µM (≈ 2.28 µg/mL).

In turn, `NNC(=O)c1ccncc1` [ISONIAZID] came in with an MIC of 11.4 µM (≈ 1.56 µg/mL). Compared with the last compound, the MIC is about 4.7-fold higher.

In the case of `O=S(=O)(c1ccc(NC(c2ccccc2)n2nc(-c3ccc(Nc4ccccc4)cc3)oc2=S)cc1)c1ccc(NC(c2ccccc2)n2nc(-c3ccc(Nc4ccccc4)cc3)oc2=S)cc1` (stereo not given), the MIC is 4.65 µM (≈ 4.48 µg/mL).

As for `O=S(=O)(c1ccc(NC(c2ccccc2)n2nc(COc3ccccc3)oc2=S)cc1)c1ccc(NC(c2ccccc2)n2nc(COc3ccccc3)oc2=S)cc1` (stereo not given), the lowest concentration to inhibit growth (MIC) was 4.98 µM (≈ 4.19 µg/mL).

`O=S(=O)(c1ccc(NC(Cc2ccco2)n2nc(COc3ccccc3)oc2=S)cc1)c1ccc(NC(Cc2ccco2)n2nc(COc3ccccc3)oc2=S)cc1` (stereo not given) registered an MIC of 1.14 µM (≈ 0.968 µg/mL).

`O=S(=O)(c1ccc(NC(c2ccccc2)n2nc(-c3ccccc3)oc2=S)cc1)c1ccc(NC(c2ccccc2)n2nc(-c3ccccc3)oc2=S)cc1` (stereo not given) had an MIC of 5.42 µM (≈ 4.23 µg/mL).

In the case of `O=[N+]([O-])c1ccc(-c2nn(C(Cc3ccco3)Nc3ccc(S(=O)(=O)c4ccc(NC(Cc5ccco5)n5nc(-c6ccc([N+](=O)[O-])cc6)oc5=S)cc4)cc3)c(=S)o2)cc1` (stereo not given), 1.74 µM (≈ 1.53 µg/mL) was the least that counted as inhibitory (MIC).
